Test: FLIPR Assays: In vitro assays were performed in a recombinant cell line expressing cDNA encoding the alpha subunit (Nav1.7, SCN9a, PN1, NE) of human Nav1.7 (Accession No. NM_002977). The cell line was provided by investigators at Yale University (Cummins et al, J. Neurosci. 18(23): 9607-9619 (1998)). For dominant selection of the Nav1.7-expressing clones, the expression plasmid co-expressed the neomycin resistance gene. The cell line was constructed in the human embryonic kidney cell line, HEK293, under the influence of the […], and stable clones were selected using limiting dilution cloning and antibiotic selection using the neomycin analogue, G418. Recombinant beta and gamma subunits were not introduced into this cell line. Additional cell lines expressing recombinant Nav1.7 cloned from other species can also be used, alone or in combination with various beta subunits, gamma subunits or chaperones.

For NC(=O)[C@H](O)[C@@H](O)c1cccc(-c2ccc3c(ccn3CC3CC3)c2)n1, the IC50 was 1020 µM.

Source: ChEMBL document CHEMBL5727859, “Indole derivatives and use thereof” (2020)
